Where a name gives a salt, the structure may show the parent alone.
What was measured:
h5-HT4b = biological target: T1, h5-HT4b (Homo sapiens, UniProt Q13639); assay: 5HT4 antagonism: [3H]GR113808 binding to membranes of h5-HT4b-HEK 293 clone 9 cells; settings: displacement of [3H]GR113808 0.1 nM; h5-HT4b-HEK 293 membranes; 30 min at 25° C.; read-out: pIC50 (5HT4 antagonistic data) (converted)
T1 construct: expressed in transfected cells; host or cells: HEK 293 (clone 9), membrane preparation
Method: h5-HT4b-HEK 293 clone 9 cells were cultured in 150 mm Petri dishes and washed twice with cold PBS. The cells were then scraped from the plates and suspended in 50 mM Tris-HCl buffer, pH 7.4 and harvested by centrifugation at 23,500 rpm for 10 minutes. The pellet was resuspended in 5 mM Tris-HCl, pH 7.4 and homogenized with an Ultra Turrax homogenizer. The membranes were collected by centrifugation at 30,000 rpm for 20 min, resuspended in 50 mM Tris-HCl pH 7.4 and stored at −80° C. For the experiment, assay mixtures (0.5 ml) contained 50 μl of the tritiated ligand (5-HT4 antagonist [^3H]GR113808 0.1 nM) and 0.4 ml membrane preparation (15 μg protein/ml). 50 μl of 10% DMSO was added for total binding. 50 μl of 1 μM of (+)-trans-(1-butyl-3-hydroxy-4-piperidinyl)methyl 8-amino-7-chloro-2,3-dihydro-1,4-benzodioxin-5-carboxylate (a proprietary 5HT4 agonist of Janssen Pharmaceutica) was added for determination of non-specific binding.
The [^3H]GR113808 assay buffer was 50 mM HEPES-NaOH, pH 7.4. The mixtures were incubated for 30 min at 25° C. The incubation was terminated by filtration over a Unifilter 96 GF/B presoaked in 0.1% polyethylenimine, followed by six washing steps with 50 mM HEPES-NaOH, pH 7.4.

[1] = Metabolic stability: incubation with liver microsomes and NADPH-generating system, LC-MS analysis; type: in vitro ADME; settings: compound 5 μM; microsomes 1 mg/ml; NADPH-generating system; 60 minutes at 37 degrees Celsius
Method: Sub-cellular tissue preparations were made according to Gorrod et al. (Xenobiotica 5: 453-462, 1975) by centrifugal separation after mechanical homogenization of tissue. Liver tissue was rinsed in ice-cold 0.1 M Tris-HCl (pH 7.4) buffer to wash excess blood. Tissue was then blotted dry, weighed and chopped coarsely using surgical scissors. The tissue pieces were homogenized in 3 volumes of ice-cold 0.1 M phosphate buffer (pH 7.4).
Tissue homogenates were centrifuged at 9000×g for 20 minutes at 4° C. The resulting supernatant was stored at −80° C. and is designated ‘S9’.
The S9 fraction can be further centrifuged at 100.000×g for 60 minutes (4° C.). The resulting supernatant was carefully aspirated, aliquoted and designated ‘cytosol’. The pellet was re-suspended in 0.1 M phosphate buffer (pH 7.4) in a final volume of 1 ml per 0.5 g original tissue weight and designated ‘microsomes’.
All sub-cellular fractions were aliquoted, immediately frozen in liquid nitrogen and stored at −80° C. until use.
For the samples to be tested, the incubation mixture contained PBS (0.1M), compound (5 μM), microsomes (1 mg/ml) and a NADPH-generating system (0.8 mM glucose-6-phosphate, 0.8 mM magnesium chloride and 0.8 Units of glucose-6-phosphate dehydrogenase). Control samples contained the same material but the microsomes were replaced by heat inactivated (10 minutes at 95 degrees Celsius) microsomes. Recovery of the compounds in the control samples was always 100%.
The mixtures were preincubated for 5 minutes at 37 degrees Celsius. The reaction was started at time point zero (t=0) by addition of 0.8 mM NADP and the samples were incubated for 60 minutes (t=60). The reaction was terminated by the addition of 2 volumes of DMSO. Then the samples were centrifuged for 10 minutes at 900×g and the supernatants were stored at room temperature for no longer as 24 hours before analysis. All incubations were performed in duplo. Analysis of the supernatants was performed with LC-MS analysis. Elution of the samples was performed on a Xterra MS C18 (50×4.6 mm, 5 μm, Waters, US). An Alliance 2790 (Supplier: Waters, US) HPLC system was used. Elution was with buffer A (25 mM ammoniumacetate (pH 5.2) in H2O/acetonitrile (95/5)), solvent B being acetonitrile and solvent C methanol at a flow rate of 2.4 ml/min. The gradient employed was increasing the organic phase concentration from 0% over 50% B and 50% C in 5 min up to 100% B in 1 minute in a linear fashion and organic phase concentration was kept stationary for an additional 1.5 minutes. Total injection volume of the samples was 25 μl.
A Quatro triple quadrupole mass spectrometer fitted with and ESP source was used as detector. The source and the desolvation temperature were set at 120 and 350° C. respectively and nitrogen was used as nebuliser and drying gas. Data were acquired in positive scan mode (single ion reaction). Cone voltage was set at 10 V and the dwell time was 1 second.
Metabolic stability was expressed as % metabolism of the compound after 60 minutes (equation given as Example) of incubation in the presence of active microsomes E(act))

T1 sequence (Q13639 whole entry): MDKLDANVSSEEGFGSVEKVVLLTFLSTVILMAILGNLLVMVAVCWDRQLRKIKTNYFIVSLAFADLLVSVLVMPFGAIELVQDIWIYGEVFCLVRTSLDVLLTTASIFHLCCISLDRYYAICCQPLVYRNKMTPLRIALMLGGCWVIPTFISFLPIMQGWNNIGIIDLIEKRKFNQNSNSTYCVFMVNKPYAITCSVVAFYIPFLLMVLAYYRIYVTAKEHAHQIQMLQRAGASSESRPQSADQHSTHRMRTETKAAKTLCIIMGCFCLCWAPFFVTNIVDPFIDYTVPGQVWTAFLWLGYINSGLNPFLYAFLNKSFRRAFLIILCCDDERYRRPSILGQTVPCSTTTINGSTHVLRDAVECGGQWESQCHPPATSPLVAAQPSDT

| melting point | IC50 (h5-HT4b) | % metabolised compound after 60 minutes [1] | Structure (SMILES) |
| --- | --- | --- | --- |
| 212 °C |  |  | O=C(NCC1CCN(CCCc2nnn[nH]2)CC1O)c1cc(Cl)cc2c1OCCCO2 (centres unmarked) (as salt: HCl) [Compound 7] |
| > 93 °C |  |  | Cc1cc2c(c(C(=O)NC[C@@H]3CCN(CCCc4cc(O)no4)C[C@H]3O)c1)OCCCO2 (hydrate or solvate) [Compound 23] |
| 135 °C |  |  | Cc1cc2c(c(C(=O)NCC3CCN(CCCN4CC(=O)NC4=O)CC3O)c1)OCCCO2 (centres unmarked) (hydrate or solvate) [Compound 24] |
|  | 6.46 nM | 30.5% | O=C1CN(CCCN2CC[C@@H](CNC(=O)c3cc(Cl)cc4c3OCCCO4)[C@H](O)C2)C(=O)N1 (relative stereo) [Compound 21] |
|  | 1 nM |  | CO[C@@H]1CN(CCCCn2ccc(O)n2)CC[C@H]1CNC(=O)c1cc(Cl)c(Br)c2c1OCCCO2 (relative stereo) [Compound 30] |
|  | 2.4 nM | 5% | COc1ccc(C(=O)NC[C@@H]2CCN(CCCCn3ccc(O)n3)C[C@H]2O)c2c1OCCO2 [Compound 1] |
|  | 8.71 nM | 0% | Cc1cc2c(c(C(=O)NC[C@@H]3CCN(CCCc4cc(O)no4)C[C@H]3O)c1)OCCO2 [Compound 2] |
|  | 148 nM |  | N#Cc1cc2c(c(C(=O)NC[C@@H]3CCN(CCCc4cc(O)no4)C[C@H]3O)c1)OCCO2 [Compound 3] |
|  | 11.5 nM | 11% | COc1ccc(C(=O)NCC2CCN(CCCCn3ccc(O)n3)CC2OC)c2c1OCCO2 (centres unmarked) [Compound 4] |
|  | 123 nM | 4% | COc1ccc(C(=O)NC[C@@H]2CCN(CCCc3cc(O)no3)C[C@H]2O)c2c1OCCO2 [Compound 5] |
|  | 2750 nM | 8% | O=C(NC[C@@H]1CCN(CCCc2cc(O)no2)C[C@H]1O)c1cc(F)cc2c1OCCO2 [Compound 6] |
|  | 31.6 nM | 5% | O=C(NCC1CCN(CCCc2nnn[nH]2)CC1O)c1cc(Cl)cc2c1OCCCO2 (centres unmarked) [Compound 7] |
|  | 7.24 nM | 2.5% | O=C(NC[C@@H]1CCN(CCCCc2nnn[nH]2)C[C@H]1O)c1cc(Cl)cc2c1OCCCO2 [Compound 8] |
|  | 7.94 nM | 3% | Cc1ccc(C(=O)NC[C@@H]2CCN(CCCc3nnn[nH]3)C[C@H]2O)c2c1OCCCO2 [Compound 9] |
|  | 5.62 nM | 2% | Cc1ccc(C(=O)NC[C@@H]2CCN(CCCCc3nnn[nH]3)C[C@H]2O)c2c1OCCCO2 [Compound 10] |
|  | 1.26 nM | 39% | O=C(NCC1CCN(CCCCn2ccc(O)n2)CC1O)c1cc(Cl)cc2c1OCCCO2 (centres unmarked) [Compound 11] |
|  | 13.2 nM | 2% | Cc1cc2c(c(C(=O)NC[C@@H]3CCN(CCCCc4nnn[nH]4)C[C@H]3O)c1)OCCCO2 [Compound 13] |
|  | 1.91 nM | 26% | Cc1cc2c(c(C(=O)NC[C@@H]3CCN(CCCCn4ccc(O)n4)C[C@H]3O)c1)OCCCO2 [Compound 15] |
|  | 18.2 nM | 0.5% | O=C(NC[C@@H]1CCN(CCCn2nn[nH]c2=O)C[C@H]1O)c1cc(Cl)cc2c1OCCCO2 [Compound 16] |
| > 125 °C | 46.8 nM | 1% | Cc1cc2c(c(C(=O)NC[C@@H]3CCN(CCc4nnn[nH]4)C[C@H]3O)c1)OCCCO2 [Compound 19] |

| melting point | IC50 (h5-HT4b) | % metabolised compound after 60 minutes [1] | Structure (SMILES) |
| --- | --- | --- | --- |
|  | 64.6 nM | 0% | O=C(NC[C@@H]1CCN(CCc2nnn[nH]2)C[C@H]1O)c1cc(Cl)cc2c1OCCCO2 [Compound 20] |
|  | 9.55 nM | 4.5% | Cc1ccc(C(=O)NC[C@@H]2CCN(CCc3nnn[nH]3)C[C@H]2O)c2c1OCCCO2 [Compound 22] |
|  | 16.6 nM | 6% | Cc1cc2c(c(C(=O)NC[C@@H]3CCN(CCCc4cc(O)no4)C[C@H]3O)c1)OCCCO2 [Compound 23] |
|  | 7.08 nM | 16% | Cc1cc2c(c(C(=O)NCC3CCN(CCCN4CC(=O)NC4=O)CC3O)c1)OCCCO2 (centres unmarked) [Compound 24] |
|  | 33.9 nM | 55% | COC1CN(CCCCn2ccc(O)n2)CCC1CNC(=O)c1cc(C#N)cc2c1OCCCO2 (centres unmarked) [Compound 25] |
|  | 16.6 nM | 3% | Cc1ccc(C(=O)NC[C@@H]2CCN(CCCc3cc(O)no3)C[C@H]2O)c2c1OCCCO2 [Compound 26] |
|  | 10.2 nM | 12% | O=C(NC[C@@H]1CCN(CCCc2cc(O)no2)C[C@H]1O)c1cc(Cl)cc2c1OCCCO2 [Compound 27] |
|  | 1.17 nM | 53% | O=C(NCC1CCN(CCCCn2ccc(O)n2)CC1O)c1cc(Cl)c(Br)c2c1OCCCO2 (centres unmarked) [Compound 28] |
|  | 0.871 nM | 50% | O=C(NCC1CCN(CCCCn2ccc(O)n2)CC1O)c1cc(Cl)c(Cl)c2c1OCCCO2 (centres unmarked) [Compound 29] |
|  | 1.48 nM | 12% | Cc1cc2c(c(C(=O)NC[C@@H]3CCN(CCCN4C(=O)CNC4=O)C[C@H]3O)c1)OCCCO2 [Compound 31] |
|  | 0.759 nM |  | COC1CN(CCCCn2ccc(O)n2)CCC1CNC(=O)c1cc(Cl)c(Cl)c2c1OCCCO2 (centres unmarked) [Compound 32] |
|  | 3.89 nM | 11% | N#Cc1cc2c(c(C(=O)NC[C@@H]3CCN(CCCCn4ccc(O)n4)C[C@H]3O)c1)OCCCO2 [Compound 34] |
|  | 83.2 nM |  | COc1ccc(C(=O)NC[C@@H]2CCN(CCCc3cc(O)no3)C[C@H]2O)c2c1OCCCO2 [Compound 35] |
|  | 14.1 nM | 10% | O=C(NC[C@@H]1CCN(CCCc2cc(O)no2)C[C@H]1O)c1cc(F)cc2c1OCCCO2 [Compound 36] |
|  | 17.8 nM | 1% | O=C(NC[C@@H]1CCN(CCCc2cc(O)no2)C[C@H]1O)c1cccc2c1OCCCO2 [Compound 37] |
|  | 1.05 nM | 18% | Cc1cc2c(c(C(=O)NC[C@@H]3CCN(CCCCN4CCOCC4)C[C@H]3O)c1)OCCCO2 [Compound 38] |
|  | 22.9 nM | 17% | COC1CN(CCCc2cc(O)no2)CCC1CNC(=O)c1cc(Cl)cc2c1OCCCO2 (centres unmarked) [Compound 39] |
|  | 4.07 nM | 0% | COc1ccc(C(=O)NC[C@@H]2CCN(CCCCN3CCOCC3)C[C@H]2O)c2c1OCCCO2 [Compound 42] |
|  | 372 nM | 3% | COc1ccc(C(=O)NCC2CCN(CCCc3cc(O)no3)CC2OC)c2c1OCCCO2 (centres unmarked) [Compound 44] |
|  | 132 nM | 6% | COC1CN(CCCc2cc(O)no2)CCC1CNC(=O)c1cc(C)cc2c1OCCCO2 (centres unmarked) [Compound 45] |
